The values below come from US20140073691A1, “Methods and composition for Treating Thyroid Hormone Related Disorders” (Zafgen, Inc., priority 2010, published 2014).

The structures appear in SMILES notation.

For the experiment, the system named is plasma thyroid stimulating hormone (TSH). Put plainly: Administration of MetAP-2 inhibitor to obese subjects: plasma TSH and circulating thyroid hormones. The class given is in vivo, human (obese subjects). As to the method: FIG. 1 depicts the results of administration of a MetAP2 inhibitor to obese patients and indicates the reduction in plasma thyroid stimulating hormone, without reductions in circulating thyroid hormone (free T3 and T4) concentrations.
8 obese subjects who were not taking any thyroid medication were treated with O-(4-dimethylaminoethoxycinnamoyl)fumagillol at a dose of 0.9 mg per square meter of body surface area (approximately 1.8 mg per dose) for 26 days. […] (FIG. 1). This is indicative of improved thyroid hormone sensitivity and a reduction in thyroid hormone resistance.

Consider `CO[C@@H]1[C@H](OC(=O)C=Cc2ccc(OCCN(C)C)cc2)CC[C@]2(CO2)[C@H]1[C@@]1(C)O[C@@H]1CC=C(C)C` [O-(4-dimethylaminoethoxycinnamoyl)fumagillol], for which, for the setting “8 obese subjects not taking thyroid medication, 0.9 mg per square meter of body surface area (approximately 1.8 mg per dose) for 26 days”, the “plasma thyroid stimulating hormone (TSH)” value is recorded as “significant reduction”. Under “8 obese subjects, 0.9 mg per square meter of body surface area for 26 days, T4 (FIG. 1)”, the “circulating thyroid hormone T4” value is “without a reduction”. Besides, where the note is “8 obese subjects, 0.9 mg per square meter of body surface area for 26 days, free T3 (FIG. 1)”, the “circulating thyroid hormone T3” value was “without a reduction”.
